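GI50: concentration for 50% inhibition of growth. The concentration for full growth arrest is given as TGI.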
Assays:
Experiment in all cases: DTP human tumour cell line panel, 384-well format
MALME-3M melanoma = tested on: MALME-3M melanoma
IGROV1 ovarian = tested on: IGROV1 ovarian
SR leukemia = tested on: SR leukemia
T-47D breast = tested on: T-47D breast
MCF7 breast = tested on: MCF7 breast
NCI-H322M lung = tested on: NCI-H322M lung
SN12C renal = tested on: SN12C renal
SF-268 CNS = tested on: SF-268 CNS
BT-549 breast = tested on: BT-549 breast
NCI-H226 lung = tested on: NCI-H226 lung
CAKI-1 renal = tested on: CAKI-1 renal
U251 glioblastoma = tested on: U251 glioblastoma
RXF 393 renal = tested on: RXF 393 renal
OVCAR-4 ovarian = tested on: OVCAR-4 ovarian
MDA-MB-435 melanoma = tested on: MDA-MB-435 melanoma
HL-60(TB) leukemia = tested on: HL-60(TB) leukemia
SNB-19 CNS = tested on: SNB-19 CNS
UO-31 renal = tested on: UO-31 renal
NCI/ADR-RES ovarian = tested on: NCI/ADR-RES ovarian
PC-3 prostate = tested on: PC-3 prostate
HS 578T breast = tested on: HS 578T breast
HOP-62 NSCLC = tested on: HOP-62 NSCLC
SW-620 colon = tested on: SW-620 colon
SK-MEL-5 melanoma = tested on: SK-MEL-5 melanoma
A498 renal = tested on: A498 renal
UACC-257 melanoma = tested on: UACC-257 melanoma
LOX IMVI melanoma = tested on: LOX IMVI melanoma
TK-10 renal = tested on: TK-10 renal
MOLT-4 leukemia = tested on: MOLT-4 leukemia

`COC(=O)C[C@](O)(CCCC(C)(C)O)C(=O)O[C@@H]1C(OC)=C[C@]23CCCN2CCc2cc4c(cc2[C@H]13)OCO4` gave a TGI (MALME-3M melanoma) of 33.2 nM, a GI50 (IGROV1 ovarian) of 24 nM and a TGI (IGROV1 ovarian) of 115 nM. The GI50 (SR leukemia) was < 10 nM, the TGI (SR leukemia) was < 10 nM and the GI50 (T-47D breast) was 27.5 nM. For the same compound, the TGI (T-47D breast) was 187 nM, the GI50 (MCF7 breast) was < 10 nM and the TGI (MCF7 breast) was 1450 nM. The GI50 (NCI-H322M lung) was 84.4 nM, the TGI (NCI-H322M lung) was 287 nM and the GI50 (SN12C renal) was 40.4 nM. For the same compound, the TGI (SN12C renal) was 267 nM, the GI50 (SF-268 CNS) was 31.1 nM and the TGI (SF-268 CNS) was 85.2 nM. For the same compound, the GI50 (BT-549 breast) was 17.1 nM, the TGI (BT-549 breast) was 34.8 nM and the GI50 (NCI-H226 lung) was 11.9 nM. It also gave a TGI (NCI-H226 lung) of 38 nM, a GI50 (CAKI-1 renal) of 42.4 nM and a TGI (CAKI-1 renal) of 266 nM. The GI50 (U251 glioblastoma) was 21.4 nM, the TGI (U251 glioblastoma) was 66.9 nM and the GI50 (RXF 393 renal) was 17.4 nM. It also gave a TGI (RXF 393 renal) of 47.9 nM, a GI50 (OVCAR-4 ovarian) of 26.5 nM and a TGI (OVCAR-4 ovarian) of 72.1 nM. The GI50 (MDA-MB-435 melanoma) was 43.4 nM, the TGI (MDA-MB-435 melanoma) was 130 nM and the GI50 (HL-60(TB) leukemia) was < 10 nM. For the same compound, the TGI (HL-60(TB) leukemia) was < 10 nM, the GI50 (SNB-19 CNS) was 29.8 nM and the TGI (SNB-19 CNS) was > 100000 nM. The GI50 (UO-31 renal) was 295 nM, the TGI (UO-31 renal) was 1090 nM and the GI50 (NCI/ADR-RES ovarian) was 1780 nM. The TGI (NCI/ADR-RES ovarian) was 7740 nM, the GI50 (PC-3 prostate) was 26 nM and the TGI (PC-3 prostate) was 139 nM. For the same compound, the GI50 (HS 578T breast) was 18 nM, the TGI (HS 578T breast) was 34.6 nM and the GI50 (HOP-62 NSCLC) was 26.3 nM. It also gave a TGI (HOP-62 NSCLC) of 134 nM, a GI50 (SW-620 colon) of 30.4 nM and a TGI (SW-620 colon) of 183 nM. It also gave a GI50 (SK-MEL-5 melanoma) of 13 nM, a TGI (SK-MEL-5 melanoma) of 36.6 nM and a GI50 (A498 renal) of 19 nM. It also gave a TGI (A498 renal) of 44.9 nM, a GI50 (UACC-257 melanoma) of 26.5 nM and a TGI (UACC-257 melanoma) of 65.6 nM. For the same compound, the GI50 (LOX IMVI melanoma) was < 10 nM, the TGI (LOX IMVI melanoma) was 21.9 nM and the GI50 (TK-10 renal) was 48.7 nM. For the same compound, the TGI (TK-10 renal) was 894 nM, the GI50 (MOLT-4 leukemia) was < 10 nM and the TGI (MOLT-4 leukemia) was < 10 nM.
